Measured values taken from patent US20240082279A1, “COMPOSITIONS AND METHODS FOR PREVENTING AND/OR TREATING SCARS” (L'Oreal, priority 2022, published 2024).

Experiments:
Format in all cases: cell-based, human
[1] = tested on: laser wounded reconstructed skin (SoftSkin™); assay: H&E histology of laser wounded reconstructed skin (SoftSkin™); conditions: SoftSkin™ model after CO2 laser; 10 uL working solution topically every 24 hours, Day 0 to Day 2; sections Day 0, 2, 4; FIG. 2
Procedure: (§1) Surgical skin samples were be taken from adults and subjected to the 0.25% trypsin dermis/epidermis separation method described in Rheinwald to obtain suspensions of normal human keratinocytes (NHK) and dermal fibroblasts. See Rheinwald J. G., Green H.: Serial cultivation of strains of human epidermal keratinocytes: The formation of keratinizing colonies from single cells. Cell. 6(3):331-43. 1975. The separated normal human dermal fibroblasts were cultured in DMEM+10% fetal calf serum. The fibroblasts were cast onto a lower layer of proto-SoftSkin™ gel. A full-thickness dermal layer equivalent was obtained after contraction of a mixture of Collagen Type I and human normal fibroblasts. The separated normal human keratinocyte cell cultures were initiated using the 3T3 feeder-layer technique described in Rheinwald J. G., Green H.: Epidermal growth factor and the multiplication of cultured human epidermal keratinocytes. Nature 265:421-424 (1977). The separated normal human keratinocytes were seeded on a lattice on the top layer of a proto-SoftSkin™ gel and the culture was left for 7 days in submerged conditions at 37° C. in the presence of 5% carbon dioxide in MEM containing 10% fetal calf serum, allowing the cells to proliferate and form an epidermal layer. Then, the culture was raised upwards to air-liquid interface for an additional 7 days to grow reconstructed skin models (SoftSkin™). […]

Filaggrin = Filaggrin immunofluorescence staining in laser wounded reconstructed skin; conditions: 3% in 3% propylene glycol, Day 2 SoftSkin™ after CO2 laser, vs laser alone, laser+vehicle and untreated control, FIG. 4
Procedure: as §1

Ki67 = Ki67 immunofluorescence staining in laser wounded reconstructed skin; conditions: 3% in 3% propylene glycol, Day 2 SoftSkin™ after CO2 laser, vs laser alone, laser+vehicle and untreated control, FIG. 6
Procedure: as §1

DKK-1 = DKK-1 secretion, Luminex Assay of medium supernatant from reconstructed skin; conditions: 3% in 3% propylene glycol, day 1 SoftSkin™ after CO2 laser, vs laser alone, laser+vehicle, untreated control
Procedure: Surgical skin samples were be taken from adults and subjected to the 0.25% trypsin dermis/epidermis separation method described in Rheinwald to obtain suspensions of normal human keratinocytes (NHK) and dermal fibroblasts. See Rheinwald J. G., Green H.: Serial cultivation of strains of human epidermal keratinocytes: The formation of keratinizing colonies from single cells. Cell. 6(3):331-43. 1975. The separated normal human dermal fibroblasts were cultured in DMEM+10% fetal calf serum. The fibroblasts were cast onto a lower layer of proto-SoftSkin™ gel. A full-thickness dermal layer equivalent was obtained after contraction of a mixture of Collagen Type I and human normal fibroblasts. The separated normal human keratinocyte cell cultures were initiated using the 3T3 feeder-layer technique described in Rheinwald J. G., Green H.: Epidermal growth factor and the multiplication of cultured human epidermal keratinocytes. Nature 265:421-424 (1977). The separated normal human keratinocytes were seeded on a lattice on the top layer of a proto-SoftSkin™ gel and the culture was left for 7 days in submerged conditions at 37° C. in the presence of 5% carbon dioxide in MEM containing 10% fetal calf serum, allowing the cells to proliferate and form an epidermal layer. Then, the culture was raised upwards to air-liquid interface for an additional 7 days to grow reconstructed skin models (SoftSkin™).
The reconstructed skin samples derived from normal human dermal fibroblasts and normal human keratinocytes were subjected to CO2 laser treatment. […]
Medium supernatant was collected from the reconstructed skin samples. DKK-1 secretions were measured using a Luminex Assay (R&D Systems) in a panel following the manufacturer's guidelines. […]
Each experiment in Examples 2-5 was replicated three times. For immunostaining study, one cryosection per replicate and 4 fluorescence images/section were taken for data analysis. All the data were statistically analyzed by Graph Pad Prism and presented as mean±standard deviation unless otherwise specified. […]

α-SMA = α-SMA ELISA of lysed reconstructed skin tissue; conditions: 3% in 3% propylene glycol, Day 2 SoftSkin™ after CO2 laser, vs laser treated tissues not further treated, FIG. 8
Procedure: Surgical skin samples were be taken from adults and subjected to the 0.25% trypsin dermis/epidermis separation method described in Rheinwald to obtain suspensions of normal human keratinocytes (NHK) and dermal fibroblasts. See Rheinwald J. G., Green H.: Serial cultivation of strains of human epidermal keratinocytes: The formation of keratinizing colonies from single cells. Cell. 6(3):331-43. 1975. The separated normal human dermal fibroblasts were cultured in DMEM+10% fetal calf serum. The fibroblasts were cast onto a lower layer of proto-SoftSkin™ gel. A full-thickness dermal layer equivalent was obtained after contraction of a mixture of Collagen Type I and human normal fibroblasts. […]
Punched Day 2 normal human tissue cultures tissues were submerged with Tissue Lysis Buffer (R&D Systems) and cryogenically ground 3 times, and further lysed on ice for 30 minutes. […] Aliquots of the supernatant were removed and stored at −80° C. until assayed. α-SMA concentration in ECM was determined using a BCA protein array kit (Absin, abs9232-500) and normalized before ELISA assay (alpha SMA Human ELISA Kit #Abcam, ab240678). […]
Each experiment in Examples 2-5 was replicated three times. For immunostaining study, one cryosection per replicate and 4 fluorescence images/section were taken for data analysis. […]

Row | Molecule | Keratinocyte invasion of laser dermal injury sites (H&E stained cross-sections) [1] | Filaggrin expression (relative fluorescence intensity, Image J) (Filaggrin) | Filaggrin expression (relative fluorescence intensity, Image J) (Filaggrin; listed as C-glycoside) | Ki67 expression (ratio of Ki67 positive cells/total cell number in basal layer) (Ki67) | Ki67 expression (ratio of Ki67 positive cells/total cell number in basal layer) (Ki67; listed as C-glycoside) | DKK-1 secretion/expression (DKK-1; FIG. 7) | DKK-1 secretion/expression (DKK-1; FIG. 7, listed as C-glycoside) | DKK-1 secretion/expression (DKK-1; FIG. 7, listed as Proxylane) | α-SMA expression (α-SMA) | α-SMA expression (α-SMA; listed as C-glycoside)
1 | hyaluronic acid [reference compound] | not |  |  |  |  |  |  |  |  | 
2 | CC(O)C[C@@H]1OC[C@@H](O)[C@H](O)[C@H]1O (stereo partly drawn) [Hydroxypropyl tetrahydropyrantriol, C13-D-xylopyranoside2-hydroxypropane] | Keratinocytes invaded laser dermal injury sites | increased Filaggrin expression | significantly higher level | increased Ki67 expression | significantly higher level | enhanced expression of DKR-1 | restored DKK-1 secretion to a level similar to control | enhancing the expression of DKK-1 | reduced α-SMA expression in a statistically significant manner | reduced the level of α-smooth muscle actin in laser wounded skin in a statistically significant manner
